Experimental findings from ChEMBL document CHEMBL5291721, “A preclinical secondary pharmacology resource illuminates target-adverse drug reaction associations of marketed drugs” (Nat Commun, 2023) are described below.

In assay [1] the target is T1, Thromboxane A2 receptor (Homo sapiens, UniProt P21731).
T1 sequence (P21731 whole entry): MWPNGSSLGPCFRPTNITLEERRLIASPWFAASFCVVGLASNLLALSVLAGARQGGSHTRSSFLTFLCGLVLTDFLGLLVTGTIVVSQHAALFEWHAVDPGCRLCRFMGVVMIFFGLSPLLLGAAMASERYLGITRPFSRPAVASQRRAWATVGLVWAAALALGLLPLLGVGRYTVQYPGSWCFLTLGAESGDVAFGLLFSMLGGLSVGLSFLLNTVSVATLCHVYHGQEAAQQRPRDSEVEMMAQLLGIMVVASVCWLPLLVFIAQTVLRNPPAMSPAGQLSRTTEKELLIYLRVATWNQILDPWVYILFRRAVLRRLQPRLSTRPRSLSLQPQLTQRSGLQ
Format: functional, cell-based.

Assay [2] deals with Acetylcholinesterase (Homo sapiens, UniProt P22303). Format: functional.
Sequence of Acetylcholinesterase (P22303 whole entry): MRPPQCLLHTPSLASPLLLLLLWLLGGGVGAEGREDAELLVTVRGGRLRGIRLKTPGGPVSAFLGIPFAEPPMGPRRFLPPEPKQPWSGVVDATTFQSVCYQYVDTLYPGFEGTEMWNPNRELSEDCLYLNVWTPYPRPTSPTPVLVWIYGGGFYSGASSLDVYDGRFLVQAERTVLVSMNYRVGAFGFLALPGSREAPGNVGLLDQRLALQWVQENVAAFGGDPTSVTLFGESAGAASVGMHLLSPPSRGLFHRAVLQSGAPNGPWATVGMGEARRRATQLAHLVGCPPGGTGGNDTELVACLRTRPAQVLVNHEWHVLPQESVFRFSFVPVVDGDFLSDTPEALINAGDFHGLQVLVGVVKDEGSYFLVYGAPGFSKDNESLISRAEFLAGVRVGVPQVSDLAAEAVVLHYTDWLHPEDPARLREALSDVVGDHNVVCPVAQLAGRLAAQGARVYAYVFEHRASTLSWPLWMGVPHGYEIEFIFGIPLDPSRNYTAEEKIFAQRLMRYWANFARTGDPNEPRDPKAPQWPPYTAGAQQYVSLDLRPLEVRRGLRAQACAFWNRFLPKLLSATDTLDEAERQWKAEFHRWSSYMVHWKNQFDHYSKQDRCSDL
In assay [3] the target is 5-hydroxytryptamine receptor 2B (Homo sapiens, UniProt P41595). It is filed as functional, cell-based.
Assay [4] deals with T2, Prostaglandin G/H synthase 1 (Homo sapiens, UniProt P23219). It is filed as functional.
T2 sequence (P23219 whole entry): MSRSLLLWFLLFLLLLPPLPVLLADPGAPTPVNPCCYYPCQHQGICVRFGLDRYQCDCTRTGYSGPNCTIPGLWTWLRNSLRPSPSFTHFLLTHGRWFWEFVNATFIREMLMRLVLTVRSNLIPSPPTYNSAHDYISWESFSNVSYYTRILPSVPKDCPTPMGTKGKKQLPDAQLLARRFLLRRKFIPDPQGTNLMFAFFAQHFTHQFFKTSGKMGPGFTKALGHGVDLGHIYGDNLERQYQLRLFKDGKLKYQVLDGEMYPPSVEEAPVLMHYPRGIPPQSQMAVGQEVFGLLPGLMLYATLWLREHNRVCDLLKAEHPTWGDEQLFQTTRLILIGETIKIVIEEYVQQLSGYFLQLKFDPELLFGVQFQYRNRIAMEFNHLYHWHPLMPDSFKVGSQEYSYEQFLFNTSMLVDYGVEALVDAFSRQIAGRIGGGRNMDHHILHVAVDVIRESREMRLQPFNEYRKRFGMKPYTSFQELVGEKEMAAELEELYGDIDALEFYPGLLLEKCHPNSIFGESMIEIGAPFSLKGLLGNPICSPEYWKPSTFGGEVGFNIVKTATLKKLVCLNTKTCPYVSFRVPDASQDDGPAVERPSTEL
Assay [5] has as its target T2, Prostaglandin G/H synthase 1. It is filed as functional. This is another data set of the same source.
Assay [6] has as its target D(1A) dopamine receptor (Homo sapiens, UniProt P21728).
In assay [7] the target is Histamine H3 receptor (Homo sapiens, UniProt Q9Y5N1).
Sequence of Histamine H3 receptor (Q9Y5N1 whole entry): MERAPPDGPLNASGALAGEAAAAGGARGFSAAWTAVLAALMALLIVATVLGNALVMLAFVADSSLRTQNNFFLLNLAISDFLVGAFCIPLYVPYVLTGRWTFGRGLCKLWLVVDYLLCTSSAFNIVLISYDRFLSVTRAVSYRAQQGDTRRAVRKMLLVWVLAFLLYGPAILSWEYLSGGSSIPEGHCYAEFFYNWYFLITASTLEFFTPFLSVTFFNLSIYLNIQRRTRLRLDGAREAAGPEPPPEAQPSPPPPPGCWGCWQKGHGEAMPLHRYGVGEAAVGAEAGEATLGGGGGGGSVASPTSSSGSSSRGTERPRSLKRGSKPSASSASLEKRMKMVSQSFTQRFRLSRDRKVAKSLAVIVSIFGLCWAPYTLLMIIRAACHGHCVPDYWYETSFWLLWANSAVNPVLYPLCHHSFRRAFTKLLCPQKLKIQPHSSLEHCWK
For assay [8], the target named is T3, 5-hydroxytryptamine receptor 1A (Homo sapiens, UniProt P08908).
T3 sequence (P08908 whole entry): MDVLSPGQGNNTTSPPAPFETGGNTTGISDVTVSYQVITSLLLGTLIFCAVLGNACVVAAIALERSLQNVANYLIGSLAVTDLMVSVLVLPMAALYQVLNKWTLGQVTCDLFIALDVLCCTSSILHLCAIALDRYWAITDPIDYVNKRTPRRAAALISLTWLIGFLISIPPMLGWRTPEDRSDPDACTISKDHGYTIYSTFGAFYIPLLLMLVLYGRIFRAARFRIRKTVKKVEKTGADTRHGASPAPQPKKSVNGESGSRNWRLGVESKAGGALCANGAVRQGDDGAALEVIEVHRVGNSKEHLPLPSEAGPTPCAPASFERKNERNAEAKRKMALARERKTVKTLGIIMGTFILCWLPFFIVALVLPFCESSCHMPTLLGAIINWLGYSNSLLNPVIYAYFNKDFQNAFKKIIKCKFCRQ

Assay [9] concerns the target T4, Alpha-1A adrenergic receptor (Homo sapiens, UniProt P35348).
T4 sequence (P35348 whole entry): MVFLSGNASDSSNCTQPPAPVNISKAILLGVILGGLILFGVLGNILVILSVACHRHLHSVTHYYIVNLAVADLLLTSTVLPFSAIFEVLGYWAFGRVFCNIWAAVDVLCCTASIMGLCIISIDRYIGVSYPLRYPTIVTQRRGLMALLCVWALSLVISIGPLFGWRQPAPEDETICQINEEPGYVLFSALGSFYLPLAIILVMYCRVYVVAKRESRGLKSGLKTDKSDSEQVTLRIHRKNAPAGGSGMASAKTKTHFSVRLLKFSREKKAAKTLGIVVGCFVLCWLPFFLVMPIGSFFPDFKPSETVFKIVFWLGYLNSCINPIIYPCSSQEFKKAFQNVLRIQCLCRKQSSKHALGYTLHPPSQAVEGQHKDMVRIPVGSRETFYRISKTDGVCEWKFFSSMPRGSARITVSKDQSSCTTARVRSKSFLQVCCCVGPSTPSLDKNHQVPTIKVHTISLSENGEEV
It is filed as functional, cell-based.

The target in assay [10] is 3',5'-cyclic-AMP phosphodiesterase 4A (Homo sapiens, UniProt P27815). Format: functional.
The target in assay [11] is T5, Alpha-2A adrenergic receptor (Homo sapiens, UniProt P08913).
T5 sequence (P08913 whole entry): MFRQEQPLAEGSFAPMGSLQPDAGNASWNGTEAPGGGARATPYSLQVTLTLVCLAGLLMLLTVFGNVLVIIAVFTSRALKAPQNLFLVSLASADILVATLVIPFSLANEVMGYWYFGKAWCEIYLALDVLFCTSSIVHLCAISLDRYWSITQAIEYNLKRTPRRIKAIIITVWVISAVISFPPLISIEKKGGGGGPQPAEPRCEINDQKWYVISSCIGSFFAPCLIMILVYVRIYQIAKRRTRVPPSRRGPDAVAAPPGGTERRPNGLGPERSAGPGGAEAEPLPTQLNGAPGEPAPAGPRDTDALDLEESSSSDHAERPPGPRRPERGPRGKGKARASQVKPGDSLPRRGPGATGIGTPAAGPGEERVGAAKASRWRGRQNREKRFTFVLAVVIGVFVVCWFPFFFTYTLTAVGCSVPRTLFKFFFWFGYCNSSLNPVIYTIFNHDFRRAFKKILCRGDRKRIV

Assay [12] has as its target Voltage-gated inwardly rectifying potassium channel KCNH2 (Homo sapiens, UniProt Q12809). Format: functional.
Assay [13] deals with Sodium-dependent dopamine transporter (Homo sapiens, UniProt Q01959).
Sequence of Sodium-dependent dopamine transporter (Q01959 whole entry): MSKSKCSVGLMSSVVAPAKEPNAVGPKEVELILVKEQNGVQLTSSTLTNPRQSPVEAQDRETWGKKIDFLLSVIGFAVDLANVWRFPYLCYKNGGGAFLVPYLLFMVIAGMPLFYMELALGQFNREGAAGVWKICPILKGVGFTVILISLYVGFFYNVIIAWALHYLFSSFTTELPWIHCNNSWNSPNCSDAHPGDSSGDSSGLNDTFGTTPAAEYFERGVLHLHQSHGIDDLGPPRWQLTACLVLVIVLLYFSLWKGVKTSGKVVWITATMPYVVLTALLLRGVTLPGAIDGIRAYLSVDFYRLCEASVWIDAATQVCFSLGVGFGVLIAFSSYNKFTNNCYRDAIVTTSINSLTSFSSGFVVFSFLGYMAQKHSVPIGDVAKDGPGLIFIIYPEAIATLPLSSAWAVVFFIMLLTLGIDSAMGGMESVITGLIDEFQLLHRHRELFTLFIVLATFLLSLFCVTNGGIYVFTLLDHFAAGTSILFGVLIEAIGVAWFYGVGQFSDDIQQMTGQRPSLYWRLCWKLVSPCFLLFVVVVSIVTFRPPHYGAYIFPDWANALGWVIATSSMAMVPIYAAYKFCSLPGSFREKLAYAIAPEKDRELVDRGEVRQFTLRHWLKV
Assay [14] has as its target cGMP-inhibited 3',5'-cyclic phosphodiesterase 3A (Homo sapiens, UniProt Q14432). Format: functional.
For assay [15], the target named is T6, Amine oxidase [flavin-containing] A (Homo sapiens, UniProt P21397).
T6 sequence (P21397 whole entry): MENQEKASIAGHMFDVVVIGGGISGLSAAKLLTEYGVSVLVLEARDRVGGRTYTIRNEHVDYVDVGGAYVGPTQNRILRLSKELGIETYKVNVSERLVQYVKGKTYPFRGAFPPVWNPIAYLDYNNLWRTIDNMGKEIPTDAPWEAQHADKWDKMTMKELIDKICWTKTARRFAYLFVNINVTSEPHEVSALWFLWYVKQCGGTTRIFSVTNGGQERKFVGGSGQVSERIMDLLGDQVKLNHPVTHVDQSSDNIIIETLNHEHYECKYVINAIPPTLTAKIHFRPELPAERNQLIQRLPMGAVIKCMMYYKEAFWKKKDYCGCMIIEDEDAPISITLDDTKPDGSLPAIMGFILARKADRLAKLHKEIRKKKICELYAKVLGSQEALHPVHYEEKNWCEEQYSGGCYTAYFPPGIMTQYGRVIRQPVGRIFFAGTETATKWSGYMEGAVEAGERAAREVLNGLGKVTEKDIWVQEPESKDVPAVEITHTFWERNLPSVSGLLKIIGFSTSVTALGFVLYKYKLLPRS
Format: functional.

For assay [16], the target named is Mu-type opioid receptor (Homo sapiens, UniProt P35372).

SMILES strings stand for the structures.

The AC50 is the concentration giving half of the maximal activity seen. A low value points to activity at low concentration.
Further: assay procedure not described here.

Sequence of cGMP-inhibited 3',5'-cyclic phosphodiesterase 3A (Q14432 whole entry): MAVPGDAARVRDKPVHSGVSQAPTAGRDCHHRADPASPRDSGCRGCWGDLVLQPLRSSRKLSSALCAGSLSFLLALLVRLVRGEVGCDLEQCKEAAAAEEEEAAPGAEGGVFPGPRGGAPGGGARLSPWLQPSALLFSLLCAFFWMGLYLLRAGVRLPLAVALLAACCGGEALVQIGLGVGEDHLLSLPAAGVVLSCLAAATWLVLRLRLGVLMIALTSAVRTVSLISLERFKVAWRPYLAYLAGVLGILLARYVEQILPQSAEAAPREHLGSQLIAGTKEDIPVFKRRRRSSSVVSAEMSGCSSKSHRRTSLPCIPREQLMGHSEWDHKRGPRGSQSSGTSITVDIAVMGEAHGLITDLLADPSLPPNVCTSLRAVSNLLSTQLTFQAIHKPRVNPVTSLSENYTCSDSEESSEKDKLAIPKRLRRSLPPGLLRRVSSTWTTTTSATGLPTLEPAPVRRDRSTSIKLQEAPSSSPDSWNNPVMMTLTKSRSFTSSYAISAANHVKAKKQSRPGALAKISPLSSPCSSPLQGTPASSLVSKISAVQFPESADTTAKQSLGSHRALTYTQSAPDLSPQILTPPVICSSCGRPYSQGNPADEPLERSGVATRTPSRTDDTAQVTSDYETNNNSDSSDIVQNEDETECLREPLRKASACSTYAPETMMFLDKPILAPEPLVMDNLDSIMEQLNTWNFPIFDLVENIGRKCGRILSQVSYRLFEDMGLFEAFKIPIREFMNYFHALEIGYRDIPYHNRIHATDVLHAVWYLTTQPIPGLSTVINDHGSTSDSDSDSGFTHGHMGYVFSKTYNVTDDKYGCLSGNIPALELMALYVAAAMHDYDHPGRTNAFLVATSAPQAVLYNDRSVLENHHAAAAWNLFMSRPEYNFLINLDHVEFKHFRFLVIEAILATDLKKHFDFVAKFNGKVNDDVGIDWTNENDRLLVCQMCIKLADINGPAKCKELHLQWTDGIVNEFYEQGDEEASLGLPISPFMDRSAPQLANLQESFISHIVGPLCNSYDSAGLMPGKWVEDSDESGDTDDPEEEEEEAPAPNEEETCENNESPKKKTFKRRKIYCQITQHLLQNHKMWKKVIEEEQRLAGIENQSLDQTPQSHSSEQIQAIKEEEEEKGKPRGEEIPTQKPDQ
Sequence of Voltage-gated inwardly rectifying potassium channel KCNH2 (Q12809 whole entry): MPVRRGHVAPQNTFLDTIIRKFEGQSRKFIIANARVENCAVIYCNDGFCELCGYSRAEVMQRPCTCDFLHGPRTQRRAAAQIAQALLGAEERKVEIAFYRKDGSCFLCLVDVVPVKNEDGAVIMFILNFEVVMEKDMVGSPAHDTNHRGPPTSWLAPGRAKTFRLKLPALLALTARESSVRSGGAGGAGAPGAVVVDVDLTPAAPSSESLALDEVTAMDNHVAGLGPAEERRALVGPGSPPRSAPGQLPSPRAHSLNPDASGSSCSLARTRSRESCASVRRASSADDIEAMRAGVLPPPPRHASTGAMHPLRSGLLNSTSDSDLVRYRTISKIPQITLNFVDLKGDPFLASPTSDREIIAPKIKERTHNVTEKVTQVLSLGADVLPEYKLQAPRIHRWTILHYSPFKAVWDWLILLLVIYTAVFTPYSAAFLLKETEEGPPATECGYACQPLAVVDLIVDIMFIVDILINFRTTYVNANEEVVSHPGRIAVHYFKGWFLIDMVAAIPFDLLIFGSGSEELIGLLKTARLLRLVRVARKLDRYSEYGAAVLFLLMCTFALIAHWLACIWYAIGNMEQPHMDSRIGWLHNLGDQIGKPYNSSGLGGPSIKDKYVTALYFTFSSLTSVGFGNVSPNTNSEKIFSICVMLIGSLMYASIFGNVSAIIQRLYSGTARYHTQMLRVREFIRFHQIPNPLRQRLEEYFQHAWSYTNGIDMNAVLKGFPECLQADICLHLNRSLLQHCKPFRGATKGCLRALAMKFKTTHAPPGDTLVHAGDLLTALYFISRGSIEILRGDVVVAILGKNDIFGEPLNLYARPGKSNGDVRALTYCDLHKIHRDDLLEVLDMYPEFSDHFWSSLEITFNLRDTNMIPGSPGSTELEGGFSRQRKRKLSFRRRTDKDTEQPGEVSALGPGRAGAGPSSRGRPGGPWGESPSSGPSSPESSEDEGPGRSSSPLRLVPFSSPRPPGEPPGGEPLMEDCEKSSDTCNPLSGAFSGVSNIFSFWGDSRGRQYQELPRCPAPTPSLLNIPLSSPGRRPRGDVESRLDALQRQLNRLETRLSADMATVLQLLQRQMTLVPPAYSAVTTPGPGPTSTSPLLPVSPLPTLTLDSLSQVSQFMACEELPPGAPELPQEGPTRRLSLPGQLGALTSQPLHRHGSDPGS
Sequence of D(1A) dopamine receptor (P21728 whole entry): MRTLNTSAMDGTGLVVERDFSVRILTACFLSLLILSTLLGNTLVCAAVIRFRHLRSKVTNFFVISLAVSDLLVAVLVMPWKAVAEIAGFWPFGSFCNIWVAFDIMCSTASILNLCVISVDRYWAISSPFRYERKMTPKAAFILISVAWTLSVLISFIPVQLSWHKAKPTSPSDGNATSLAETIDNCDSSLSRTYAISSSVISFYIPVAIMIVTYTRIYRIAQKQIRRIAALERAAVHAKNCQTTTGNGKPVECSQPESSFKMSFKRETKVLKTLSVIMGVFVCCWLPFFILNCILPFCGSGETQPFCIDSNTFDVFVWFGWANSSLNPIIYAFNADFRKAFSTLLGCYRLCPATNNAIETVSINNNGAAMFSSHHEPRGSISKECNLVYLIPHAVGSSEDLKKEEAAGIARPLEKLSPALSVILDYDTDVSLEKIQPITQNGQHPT

Regarding `C[C@H]1CN(C[C@H](Cc2ccccc2)C(=O)NCC(=O)O)CC[C@@]1(C)c1cccc(O)c1` [ALVIMOPAN], the half-maximal activity concentration (AC50) is greater than 30 µM in assay [1]; greater than 30 µM in [2]; greater than 30 µM in assay [3]; greater than 30 µM in [4]; greater than 3 µM in assay [5]; greater than 30 µM in assay [6]. In addition, the half-maximal activity concentration (AC50) in assay [7], in assay [8], in [9], in assay [10], in [11] and in assay [12] was greater than 30 µM in each case. Moreover, the concentration at half-maximal activity (AC50) in assay [13], in [14] and in assay [15] was greater than 30 µM in each case.

With `Nc1c(CC(=O)O)cccc1C(=O)c1ccc(Br)cc1` [BROMFENAC], the half-maximal activity concentration (AC50) in assay [1], in [2], in assay [3], in assay [16], in assay [6] and in assay [7] was greater than 30 µM in each case. Besides, the AC50 in [8], in assay [9], in assay [10], in [11], in assay [12] and in assay [13] was greater than 30 µM each time. In addition, the AC50 in assay [14] and in assay [15] was greater than 30 µM each time.

On to `O=C(O)Cc1ccccc1Nc1c(Cl)cccc1Cl` [DICLOFENAC], for which the AC50 in assay [1], in [2], in [3], in assay [16], in [6] and in assay [7] was greater than 3 µM throughout. Also, the AC50 in [8] is greater than 3 µM; in [9] it was greater than 3 µM; in assay [10], greater than 3 µM; in [11] it was greater than 3 µM; in [12], greater than 30 µM; in assay [13], greater than 3 µM. In addition, the AC50 in [14] and in [15] was greater than 3 µM throughout.

As to `N=C(N)N/N=C/c1c(Cl)cccc1Cl` [GUANABENZ], the half-maximal activity concentration (AC50) in [1] was greater than 30 µM; in assay [2], greater than 30 µM; in assay [3], greater than 30 µM; in [4], greater than 30 µM; in [16], 5.18 µM; in assay [5], greater than 30 µM. Moreover, the AC50 is 8.03 µM in assay [6]; greater than 30 µM in assay [7]; 0.604 µM in assay [8]; 0.0423 µM in assay [9]; greater than 30 µM in [10]; greater than 30 µM in [12]. Besides, the AC50 in assay [13] is 12.8 µM; in [14], greater than 30 µM; in assay [15] it was 3.21 µM.

For `CCC1=C[C@@H]2CN(C1)Cc1c([nH]c3ccccc13)[C@@](C(=O)OC)(c1cc3c(cc1OC)N(C)[C@H]1[C@@](O)(C(=O)OC)[C@H](OC(C)=O)[C@]4(CC)C=CCN5CC[C@]31[C@@H]54)C2` [VINORELBINE], the half-maximal activity concentration (AC50) in [1] is greater than 30 µM; in assay [2], greater than 30 µM; in assay [3], greater than 30 µM; in [4], greater than 30 µM; in assay [16], 6.76 µM; in assay [6], greater than 30 µM. Moreover, the AC50 was greater than 30 µM in [7]; greater than 30 µM in assay [8]; greater than 30 µM in assay [9]; greater than 30 µM in assay [10]; greater than 30 µM in assay [11]; 5.5 µM in assay [12]. Besides, the half-maximal activity concentration (AC50) in assay [13], in [14] and in assay [15] was greater than 30 µM each time.

Consider `O=C1Cc2cc(CCN3CCN(c4nsc5ccccc45)CC3)c(Cl)cc2N1` [ZIPRASIDONE], for which the AC50 is greater than 30 µM in [1]; greater than 30 µM in assay [2]; greater than 30 µM in assay [3]; greater than 30 µM in [4]; 5.06 µM in [16]; greater than 30 µM in assay [5]. Also, the half-maximal activity concentration (AC50) in assay [7] was greater than 30 µM; in assay [8], 0.003 µM; in assay [9] it was greater than 30 µM; in [10], greater than 30 µM; in assay [13], 0.0875 µM; in assay [14], greater than 30 µM. Also, the AC50 in assay [15] was greater than 30 µM.
